From patent publication US8017612B2, “Piperazine compound and use thereof as a HCV polymerase inhibitor” (priority 2006, dated 2011)

Tests used:
[1] = target: T1, HCV polymerase (NS5B) type 1b (Hepatitis C virus genotype 1b, UniProt P26663); test: Assay of enzyme (HCV polymerase) inhibitory activity, type 1b enzyme; format: biochemical, HCV BK strain (type 1b)
T1 construct: a region encoding NS5B (J Virol 1991 March, 65(3), 1105-13, 544 amino acids after deletion of 47 amino acids on the C-terminal); 6xHis (C); made in house; host or cells: Escherichia coli
Method in brief: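 Rxn: NS5B 1b (BK, ΔC47, His6) 0.5 μg/ml; substrate RNA 5 μg/ml; ATP/GTP/CTP 50 μM, UTP 2 μM + [5,6-3H]UTP; 20 mM Tris pH 7.5, 5 mM MgCl2, 50 mM NaCl, 1 mM EDTA/DTT. 25 °C, 60 min. Stop with TCA/pyrophosphate, filter, scintillation count; IC50 vs. untreated.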

[2] = target: T2, HCV polymerase (NS5B) type 1a (Hepatitis C virus genotype 1a, UniProt P26664); test: Assay of enzyme (HCV polymerase) inhibitory activity, type 1a enzyme; format: biochemical, HCV type 1a (cloned from the blood of patients)
T2 construct: made in house; host or cells: Escherichia coli (by the 'similar method' of the 1b enzyme)
Method in brief: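 NS5B Δ47 C-term His6 (type 1a, 1.5 μg/ml); substrate RNA 5 μg/ml; ATP/GTP/CTP 50 μM, UTP 2 μM + [5,6-3H]UTP; Tris pH 7.5, MgCl2 5 mM; 25° C, 60 min. TCA/pyrophosphate stop, GF/B filter, scintillation. IC50 vs no-compound control.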

[3] = HCV polymerase inhibitory activity (IC50), 1b, type 1b enzyme 0.5 μg/ml, 25° C., 60 min
[4] = HCV polymerase inhibitory activity (IC50), 1a, type 1a enzyme 1.5 μg/ml, 25° C., 60 min
[5] = HCV polymerase inhibitory activity IC50, 1b, type 1b enzyme
[6] = HCV polymerase inhibitory activity IC50, 1a, type 1a enzyme

| SMILES | IC50 [1, 3] [nM] | IC50 [2, 4] [nM] | IC50 [1, 5] [nM] | IC50 [2, 6] [nM] |
| --- | --- | --- | --- | --- |
| Cc1nc(N2CCN(S(=O)(=O)c3ccc(OC(F)(F)F)cc3)[C@@H](C(=O)NCc3ccc(N4CCCC4)nc3)C2)sc1C(=O)O [Example 390, 4-methyl-2-[(R)-3-[(6-pyrrolidin-1-yl-pyridin-3-ylmethyl)-carbamoyl]-4-(4-trifluoromethoxy-benzenesulfonyl)-piperazin-1-yl]-thiazole-5-carboxylic acid] | < 100 | 100 to 1000 |  |  |
| CC(C)c1ccc(CNC(=O)[C@H]2CN(c3cnc(C(=O)O)cn3)CCN2S(=O)(=O)c2ccc(OC(F)(F)F)cc2)cc1 [Example 385, (R)-3-(4-isopropyl-benzylcarbamoyl)-4-(4-trifluoromethoxy-benzenesulfonyl)-3,4,5,6-tetrahydro-2H-[1,2′]bipyrazinyl-5′-carboxylic acid] | < 100 | < 100 |  |  |
| CCCc1ccc(CNC(=O)[C@H]2CN(c3ccc(C(=O)O)nc3)CCN2S(=O)(=O)c2ccc(OC(F)(F)F)cc2)cc1 [Example 631, 5-[(R)-3-(4-propyl-benzylcarbamoyl)-4-(4-trifluoromethoxy-benzenesulfonyl)-piperazin-1-yl]-pyridine-2-carboxylic acid] | < 100 | < 100 |  |  |
| CCCc1ccc(CNC(=O)[C@H]2CN(c3cnc(CO)c(N)n3)CCN2S(=O)(=O)c2ccc(OC(F)(F)F)cc2)cc1 [Example 549, (R)-6′-amino-5′-hydroxymethyl-4-(4-trifluoromethoxy-benzenesulfonyl)-3,4,5,6-tetrahydro-2H-[1,2′]bipyrazinyl-3-carboxylic acid 4-propyl-benzylamide] | < 100 | < 100 |  |  |
| O=C(NCc1ccc(OC(F)(F)F)cc1)[C@H]1CN(c2nc3ccc(=O)[nH]c3s2)CCN1S(=O)(=O)c1ccc(C(F)(F)F)cc1 [Example 1086, (R)-4-(5-oxo-4,5-dihydro-thiazolo[5,4-b]pyridin-2-yl)-1-(4-trifluoromethyl-benzenesulfonyl)-piperazine-2-carboxylic acid 4-trifluoromethoxy-benzylamide] |  |  | < 100 | < 100 |
| Cc1cc(N2CCN(S(=O)(=O)c3ccc(OC(F)(F)F)cc3)[C@@H](C(=O)NCc3ccc(C(C)C)cc3)C2)n[nH]1 [Example 523, (R)-4-(5-methyl-1H-pyrazol-3-yl)-1-(4-trifluoromethoxy-benzenesulfonyl)-piperazine-2-carboxylic acid 4-isopropyl-benzylamide] | 100 to 1000 | 100 to 1000 |  |  |
| Cc1nc(N)c2sc(N3CCN(S(=O)(=O)c4ccc(OC(F)(F)F)cc4)[C@@H](C(=O)NCc4ccc(OC(F)(F)F)cc4)C3)nc2n1 [Example 982, (R)-4-(7-amino-5-methyl-thiazolo[4,5-d]pyrimidin-2-yl)-1-(4-trifluoromethoxy-benzenesulfonyl)-piperazine-2-carboxylic acid 4-trifluoromethoxy-benzylamide] |  |  | < 100 | < 100 |
| CCC(F)(F)c1ccc(CNC(=O)[C@H]2CN(C(=O)Nc3nnc(C(=O)N4CC[C@@H](O)C4)s3)CCN2S(=O)(=O)c2ccc(OC(F)(F)F)cc2)cc1 [Example 495, (R)-4-(4-trifluoromethoxy-benzenesulfonyl)-piperazine-1,3-dicarboxylic acid 3-[4-(1,1-difluoro-propyl)-benzylamide] 1-{[5-((R)-3-hydroxy-pyrrolidine-1-carbonyl)-[1,3,4]thiadiazol-2-yl]-amide}] | 100 to 1000 | > 1000 |  |  |
| CC(=O)N1CCN(S(=O)(=O)c2ccc(CO)cc2)C(C(=O)NCc2ccc(C(F)(F)F)cc2)C1 (stereo not shown) [Example 132, 4-acetyl-1-(4-hydroxymethyl-benzenesulfonyl)-piperazine-2-carboxylic acid 4-trifluoromethyl-benzylamide] | > 1000 | > 1000 |  |  |
| COCC(C)(C)c1ccc(CNC(=O)[C@H]2CN(c3nc4cn[nH]c(=O)c4s3)CCN2S(=O)(=O)c2ccc(OC(F)(F)F)cc2)cc1 [Example 851, (R)-4-(7-oxo-6,7-dihydro-thiazolo[4,5-d]pyridazin-2-yl)-1-(4-trifluoromethoxy-benzenesulfonyl)-piperazine-2-carboxylic acid 4-(2-methoxy-1,1-dimethyl-ethyl)-benzylamide] |  |  | < 100 | < 100 |
| CCC(F)(F)c1ccc(CNC(=O)[C@H]2CN(C(=O)C(=O)O)CCN2S(=O)(=O)c2ccc(OC(F)(F)F)cc2)cc1 [Example 679, [(R)-3-[4-(1,1-difluoro-propyl)-benzylcarbamoyl]-4-(4-trifluoromethoxy-benzenesulfonyl)-piperazin-1-yl]-oxo-acetic acid] |  |  | > 1000 | > 1000 |
| Cc1nc(N2CCN(S(=O)(=O)c3ccc(OC(F)(F)F)cc3)[C@@H](C(=O)NCc3ccc(C(C)C)cc3)C2)sc1C(=O)N[C@H](C)C(=O)O [Example 369, (R)-2-({2-[(R)-3-(4-isopropyl-benzylcarbamoyl)-4-(4-trifluoromethoxy-benzenesulfonyl)-piperazin-1-yl]-4-methyl-thiazole-5-carbonyl}-amino)-propionic acid] | < 100 | < 100 |  |  |
| CC(=O)N1CCN(S(=O)(=O)c2ccc(-c3cc(C(F)(F)F)on3)s2)C(C(=O)NCc2ccc(C(F)(F)F)cc2)C1 (stereo not shown) [Example 43, 4-acetyl-1-[5-(5-trifluoromethyl-isoxazol-3-yl)-thiophene-2-sulfonyl]-piperazine-2-carboxylic acid 4-trifluoromethyl-benzylamide] | > 1000 | > 1000 |  |  |
| CCCc1ccc(CNC(=O)[C@H]2CN(c3cnc(C(=O)O)cn3)CCN2S(=O)(=O)c2ccc(CC)s2)cc1 [Example 522, (R)-4-(5-ethyl-thiophene-2-sulfonyl)-3-(4-propyl-benzylcarbamoyl)-3,4,5,6-tetrahydro-2H-[1,2′]bipyrazinyl-5′-carboxylic acid] | < 100 | < 100 |  |  |
| CCOC(=O)C(=O)N1CCN(S(=O)(=O)c2ccc(C(F)(F)F)cc2)[C@@H](C(=O)NCc2ccc(C(C)C)cc2)C1 [Example 290, [(R)-3-(4-isopropyl-benzylcarbamoyl)-4-(4-trifluoromethyl-benzenesulfonyl)-piperazin-1-yl]-oxo-acetic acid ethyl ester] | 100 to 1000 | > 1000 |  |  |
| CCC(F)(F)c1ccc(CNC(=O)[C@H]2CN(c3cnc4cncnc4n3)CCN2S(=O)(=O)c2ccc(OC(F)(F)F)cc2)cc1 [Example 615, (R)-4-pteridin-7-yl-1-(4-trifluoromethoxy-benzenesulfonyl)-piperazine-2-carboxylic acid 4-(1,1-difluoro-propyl)-benzylamide] | < 100 | < 100 |  |  |
| CC(=O)N1CCN(S(=O)(=O)c2ccc(C(C)C)cc2)C(C(=O)NCc2cccc(N(C)C)c2)C1 (stereo not shown) [Example 128, 4-acetyl-1-(4-isopropyl-benzenesulfonyl)-piperazine-2-carboxylic acid 3-dimethylamino-benzylamide] | > 1000 | > 1000 |  |  |
| COc1cccc(CNC(=O)C2CN(C(C)=O)CCN2S(=O)(=O)c2ccc(C(C)C)cc2)c1 (stereo not shown) [Example 51, 4-acetyl-1-(4-isopropyl-benzenesulfonyl)-piperazine-2-carboxylic acid 3-methoxy-benzylamide] | > 1000 | > 1000 |  |  |
| CCCc1ccc(S(=O)(=O)N2CCN(C(=O)Nc3cccc(OCC(=O)O)c3)C[C@@H]2C(=O)NCc2ccc(C(C)C)cc2)cc1 [Example 282, (3-{[(R)-3-(4-isopropyl-benzylcarbamoyl)-4-(4-propyl-benzenesulfonyl)-piperazine-1-carbonyl]-amino}-phenoxy)-acetic acid] | < 100 | 100 to 1000 |  |  |
| O=C(NCc1ccc(OC(F)F)cc1)[C@H]1CN(c2nc3nc(C4CC4)ncc3s2)CCN1S(=O)(=O)c1ccc(OC(F)F)cc1 [Example 1014, (R)-4-(5-cyclopropyl-thiazolo[4,5-d]pyrimidin-2-yl)-1-(4-difluoromethoxy-benzenesulfonyl)-piperazine-2-carboxylic acid 4-difluoromethoxy-benzylamide] |  |  | < 100 | < 100 |
| CCC(F)(F)c1ccc(CNC(=O)[C@H]2CN(c3nc4ncncc4s3)CCN2S(=O)(=O)c2ccc(C(F)(F)F)cc2)cc1 [Example 903, (R)-4-thiazolo[4,5-d]pyrimidin-2-yl-1-(4-trifluoromethyl-benzenesulfonyl)-piperazine-2-carboxylic acid 4-(1,1-difluoro-propyl)-benzylamide] |  |  | < 100 | < 100 |
| CCCc1ccc(CNC(=O)[C@H]2CN(c3cnc(CO)cn3)CCN2S(=O)(=O)c2ccc(CC)cc2)cc1 [Example 478, (R)-4-(4-ethyl-benzenesulfonyl)-5′-hydroxymethyl-3,4,5,6-tetrahydro-2H-[1,2′]bipyrazinyl-3-carboxylic acid 4-propyl-benzylamide] | < 100 | < 100 |  |  |
| COC(=O)COc1ccc(S(=O)(=O)N2CCN(C(C)=O)C[C@@H]2C(=O)NCc2ccc(C(C)C)cc2)cc1 [Example 238, {4-[(R)-4-acetyl-2-(4-isopropyl-benzylcarbamoyl)-piperazine-1-sulfonyl]-phenoxy}-acetic acid methyl ester] | 100 to 1000 | > 1000 |  |  |
